Measurements taken from patent publication US8609672B2, “Piperazinylpyrimidine analogues as protein kinase inhibitors” (University of the Pacific, priority 2010, dated 2013).

Experiments:
BT-549 = test: NCI-60 SRB growth inhibition: BT-549; assay type: cell-based, human; conditions: for TGI: BT-549, Breast cancer, 48 hours treatment; for CC50: Homo sapiens, BT-549, 48 h, read-out: LC50 (the source's name)
MDA-MB-435 = test: NCI-60 SRB growth inhibition: MDA-MB-435; assay type: cell-based, human; conditions: MDA-MB-435, Melanoma, 48 hours treatment; for CC50: Homo sapiens, read-out: LC50 (the source's name)
IGROVI = test: NCI-60 SRB growth inhibition: IGROVI; assay type: cell-based, human; conditions: Ovarian cancer, 48 hours treatment; for CC50: Homo sapiens, read-out: LC50 (the source's name)
MCF7 = test: NCI-60 SRB growth inhibition: MCF7; assay type: cell-based, human; conditions: MCF7, Breast cancer; 48 hours treatment
ABL kinase = molecular target: T1, ABL kinase (Homo sapiens, UniProt P00519); test: Functional kinase inhibition assay: ABL; assay type: biochemical; conditions: 1 μM compound
T1 construct: purchased Millipore Corp. (Dundee, UK; assay service)
Method: [formula] The assay was performed in duplicates.
The results of kinase function inhibition assay are shown in Table 6, including the F-POC of 1 μM of compounds 4, 15, and 16 against the most sensitive kinases tested within this experiment. […] Kinases within the same subfamily are highlighted.

HCC-2998 = test: NCI-60 SRB growth inhibition: HCC-2998; assay type: cell-based, human; conditions: HCC-2998, Colon cancer; 48 hours treatment
COLO 205 = test: NCI-60 SRB growth inhibition: COLO 205; assay type: cell-based, human; conditions: COLO 205, Colon cancer, 48 hours treatment; for CC50: Homo sapiens, read-out: LC50 (the source's name)
SNB-75 = test: NCI-60 SRB growth inhibition: SNB-75; assay type: cell-based, human; conditions: SNB-75, CNS cancer, 48 hours treatment; for CC50: Homo sapiens, read-out: LC50 (the source's name)
CAKI-1 = test: NCI-60 SRB growth inhibition: CAKI-1; assay type: cell-based, human; conditions: CAKI-1, Renal cancer; 48 hours treatment
ACHN = test: NCI-60 SRB growth inhibition: ACHN; assay type: cell-based, human; conditions: Renal cancer, 48 hours treatment; for CC50: Homo sapiens, read-out: LC50 (the source's name)
NCI/ADR-RES = test: NCI-60 SRB growth inhibition: NCI/ADR-RES; assay type: cell-based, human; conditions: Ovarian cancer, 48 hours treatment; for CC50: Homo sapiens, read-out: LC50 (the source's name)
HCT-15 = test: NCI-60 SRB growth inhibition: HCT-15; assay type: cell-based, human; conditions: HCT-15, Colon cancer; 48 hours treatment
MALME-3M = test: NCI-60 SRB growth inhibition: MALME-3M; assay type: cell-based, human; conditions: Melanoma, 48 hours treatment
NCI-H226 = test: NCI-60 SRB growth inhibition: NCI-H226; assay type: cell-based, human; conditions: NCI-H226, Non-small cell lung cancer; 48 hours treatment
EKVX = test: NCI-60 SRB growth inhibition: EKVX; assay type: cell-based, human; conditions: Non-small cell lung cancer, 48 hours treatment; for CC50: Homo sapiens, read-out: LC50 (the source's name)
M0LT-4 = test: NCI-60 SRB growth inhibition: M0LT-4; assay type: cell-based, human; conditions: M0LT-4, Leukemia; 48 hours treatment
PC-3 = test: NCI-60 SRB growth inhibition: PC-3; assay type: cell-based, human; conditions: PC-3, Prostate cancer; 48 hours treatment
786-0 = test: NCI-60 SRB growth inhibition: 786-0; assay type: cell-based, human; conditions: 786-0, Renal cancer; 48 hours treatment
SW-620 = test: NCI-60 SRB growth inhibition: SW-620; assay type: cell-based, human; conditions: SW-620, Colon cancer, 48 hours treatment; for CC50: Homo sapiens, read-out: LC50 (the source's name)
A498 = test: NCI-60 SRB growth inhibition: A498; assay type: cell-based, human; conditions: A498, Renal cancer, 48 hours treatment; for CC50: Homo sapiens, read-out: LC50 (the source's name)
M14 = test: NCI-60 SRB growth inhibition: M14; assay type: cell-based, human; conditions: M14, Melanoma, 48 hours treatment; for CC50: Homo sapiens, read-out: LC50 (the source's name)
NCI-H522 = test: NCI-60 SRB growth inhibition: NCI-H522; assay type: cell-based, human; conditions: NCI-H522, Non-small cell lung cancer; 48 hours treatment

T1 sequence (P00519 whole entry): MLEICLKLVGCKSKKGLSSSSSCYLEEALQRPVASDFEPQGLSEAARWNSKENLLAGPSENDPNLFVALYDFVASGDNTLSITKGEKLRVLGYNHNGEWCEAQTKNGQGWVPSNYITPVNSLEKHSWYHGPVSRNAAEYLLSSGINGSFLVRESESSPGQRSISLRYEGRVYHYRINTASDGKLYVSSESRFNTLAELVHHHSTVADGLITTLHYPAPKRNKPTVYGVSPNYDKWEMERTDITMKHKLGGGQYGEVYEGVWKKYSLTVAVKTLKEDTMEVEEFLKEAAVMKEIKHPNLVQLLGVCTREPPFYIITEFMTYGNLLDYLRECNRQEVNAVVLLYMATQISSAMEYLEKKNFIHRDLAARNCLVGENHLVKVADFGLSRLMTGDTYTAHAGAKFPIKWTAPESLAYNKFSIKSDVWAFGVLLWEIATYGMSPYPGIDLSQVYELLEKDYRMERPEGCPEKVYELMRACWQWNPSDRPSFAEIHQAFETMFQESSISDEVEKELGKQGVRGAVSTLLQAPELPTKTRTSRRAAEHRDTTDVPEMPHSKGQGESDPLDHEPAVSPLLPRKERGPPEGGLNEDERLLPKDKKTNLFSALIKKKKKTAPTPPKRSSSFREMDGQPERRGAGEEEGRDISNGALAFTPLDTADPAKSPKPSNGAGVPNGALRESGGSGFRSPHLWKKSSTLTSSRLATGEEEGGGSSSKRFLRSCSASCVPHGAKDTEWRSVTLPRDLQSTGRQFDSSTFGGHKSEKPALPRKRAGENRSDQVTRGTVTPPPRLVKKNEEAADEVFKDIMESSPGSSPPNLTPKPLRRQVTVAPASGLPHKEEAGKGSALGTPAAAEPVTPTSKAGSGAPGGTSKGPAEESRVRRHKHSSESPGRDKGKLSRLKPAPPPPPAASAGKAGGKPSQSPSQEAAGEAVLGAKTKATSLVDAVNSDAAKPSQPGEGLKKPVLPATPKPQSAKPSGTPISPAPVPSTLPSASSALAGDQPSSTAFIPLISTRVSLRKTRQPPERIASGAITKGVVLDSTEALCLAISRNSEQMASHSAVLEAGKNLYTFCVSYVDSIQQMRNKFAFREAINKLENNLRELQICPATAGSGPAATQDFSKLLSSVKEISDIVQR

Row | SMILES | TGI (BT-549) [µM] | CC50 (BT-549) [µM] | CC50 (MDA-MB-435) [µM] | TGI (MDA-MB-435) [µM] | CC50 (IGROVI) [µM] | TGI (IGROVI) [µM] | TGI (MCF7) [µM] | inhibitory action over ABL kinase function (ABL kinase) | TGI (HCC-2998) [µM] | TGI (COLO 205) [µM] | CC50 (COLO 205) [µM] | CC50 (SNB-75) [µM] | TGI (SNB-75) [µM] | TGI (CAKI-1) [µM] | CC50 (ACHN) [µM] | TGI (ACHN) [µM] | CC50 (NCI/ADR-RES) [µM] | TGI (NCI/ADR-RES) [µM] | TGI (HCT-15) [µM] | TGI (MALME-3M) [µM] | further results
1 | c1ccc(Cc2cnc(N3CCN(c4ncnc5ccccc45)CC3)nc2)cc1 [Compound 4, 4-(4-(5-benzylpyrimidin-2-yl)piperazin-1-yl)quinazoline] | 18.40 | 43 | 91.4 | 27.50 | > 100 | 63.30 | 58.20 | without affecting ABL subfamily members | 60.90 | >100 | > 100 | > 100 | 78.20 | 39.30 | > 100 | 42.40 | 66.4 | 17.60 | 63.20 | 33.60 | TGI (NCI-H226): 48.40 µM; CC50 (EKVX): > 100 µM; TGI (EKVX): 33.10 µM; TGI (M0LT-4): 40.60 µM; TGI (PC-3): >100 µM; TGI (786-0): 36.70 µM; CC50 (SW-620): 59.9 µM; TGI (SW-620): 27.70 µM; TGI (A498): 24.20 µM; CC50 (A498): 50.1 µM; CC50 (M14): 51.6 µM; TGI (M14): 26.30 µM; TGI (NCI-H522): 40.30 µM
2 | CCc1cnc(N2CCN(C(=O)c3ccc(CNc4ncnc5ccccc45)cc3)CC2)nc1 [Compound 15, (4-(5-ethylpyrimidin-2-yl)piperazin-1-yl)(4-((quinazolin-4-ylamino)methyl)phenyl)methanone] | 10.70 | > 100 | > 100 | >100 | > 100 | 49.80 | 72.80 | weak inhibitory action | 48.90 | 38.20 | > 100 | > 100 | 58.20 | 94.80 | > 100 | 82.50 | > 100 | 21.50 | >100 | 42.20 | TGI (NCI-H226): >100 µM; CC50 (EKVX): > 100 µM; TGI (EKVX): 61.40 µM; TGI (M0LT-4): 27.60 µM; TGI (PC-3): >100 µM; TGI (786-0): 54.80 µM; CC50 (SW-620): > 100 µM; TGI (SW-620): 45.10 µM; TGI (A498): >100 µM; CC50 (A498): > 100 µM; CC50 (M14): 93.7 µM; TGI (M14): 32.70 µM; TGI (NCI-H522): 55.40 µM
3 | O=C(c1cccc(Nc2ncnc3ccccc23)c1)N1CCN(c2ncc(Cc3ccccc3)cn2)CC1 [Compound 16, (4-(5-benzylpyrimidin-2-yl)piperazin-1-yl)(3-(quinazolin-4-ylamino)phenyl)methanone] | 1.74 | 5.37 | 4.57 | 2.14 | 5.01 | 1.82 | 2.29 | weak inhibitory action | 3.98 | 2.75 | 5.5 | > 100 | 5.89 | 1.91 | > 100 | 4.57 | > 100 | 8.51 | 3.55 | 2.57 | TGI (NCI-H226): 2.09 µM; CC50 (EKVX): > 100 µM; TGI (EKVX): 4.90 µM; TGI (M0LT-4): 1.34 µM; TGI (PC-3): 2.88 µM; TGI (786-0): 6.61 µM; CC50 (SW-620): > 100 µM; TGI (SW-620): 4.27 µM; TGI (A498): 5.37 µM; CC50 (A498): > 100 µM; CC50 (M14): 4.68 µM; TGI (M14): 2.14 µM; TGI (NCI-H522): 2.09 µM
